Legend:
[1] = target: METTL3/METTL14 (Homo sapiens) (UniProt Q86U44+Q9HCE5); assay: Inhibition of METTL3/METTL14 (unknown origin) using SAM as substrate at 25 uM incubated for 360 mins by luminescence based assay relative to control; format: protein-complex assay
NCI-H1975 = assay: Antiproliferative activity against human NCI-H1975 cells assessed as inhibition of cell growth incubated for 72 hrs by CCK-8 assay; format: functional, cell-based; conditions: NCI-H1975, 72 h
PC-9 = assay: Antiproliferative activity against human PC-9 cells assessed as inhibition of cell growth incubated for 72 hrs by CCK-8 assay; format: functional, cell-based; conditions: PC-9, 72 h
METTL3/METTL14 = METTL3/METTL14 (Homo sapiens, UniProt Q86U44); assay: Inhibition of recombinant METTL3/METTL14 (unknown origin) by radioactivity based assay; format: protein-complex assay
Chain of METTL3/METTL14 (Q86U44 whole entry): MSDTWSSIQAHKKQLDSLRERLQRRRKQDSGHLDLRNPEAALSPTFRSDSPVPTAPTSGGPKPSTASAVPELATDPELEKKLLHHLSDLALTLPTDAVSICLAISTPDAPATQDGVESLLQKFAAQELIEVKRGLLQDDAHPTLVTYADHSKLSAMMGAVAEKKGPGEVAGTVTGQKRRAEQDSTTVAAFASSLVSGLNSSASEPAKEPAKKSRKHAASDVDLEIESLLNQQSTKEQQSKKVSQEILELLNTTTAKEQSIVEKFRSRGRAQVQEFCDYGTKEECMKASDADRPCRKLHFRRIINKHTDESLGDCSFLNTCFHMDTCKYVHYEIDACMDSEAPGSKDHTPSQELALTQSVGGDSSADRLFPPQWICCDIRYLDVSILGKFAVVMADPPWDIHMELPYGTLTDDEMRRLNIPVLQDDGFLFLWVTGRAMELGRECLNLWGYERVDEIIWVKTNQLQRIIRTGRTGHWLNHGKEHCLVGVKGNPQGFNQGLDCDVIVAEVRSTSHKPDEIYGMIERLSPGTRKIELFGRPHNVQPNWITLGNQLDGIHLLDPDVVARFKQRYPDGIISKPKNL
Chain of METTL3/METTL14 (Q9HCE5 whole entry, further chain): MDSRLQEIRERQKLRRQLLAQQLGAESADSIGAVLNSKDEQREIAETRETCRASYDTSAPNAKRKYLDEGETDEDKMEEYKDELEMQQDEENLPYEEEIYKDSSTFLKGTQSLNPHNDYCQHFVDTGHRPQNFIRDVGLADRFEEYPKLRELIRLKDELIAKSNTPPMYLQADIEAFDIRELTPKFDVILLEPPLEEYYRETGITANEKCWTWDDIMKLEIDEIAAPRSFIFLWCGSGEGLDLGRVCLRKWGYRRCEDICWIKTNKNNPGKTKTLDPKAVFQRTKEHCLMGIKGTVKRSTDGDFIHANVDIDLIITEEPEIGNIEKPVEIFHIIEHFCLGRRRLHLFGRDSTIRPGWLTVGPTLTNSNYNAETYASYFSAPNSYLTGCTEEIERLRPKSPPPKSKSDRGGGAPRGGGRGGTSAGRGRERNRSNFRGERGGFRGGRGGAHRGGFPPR

| inhibition [1] | Structure (SMILES) | further results |
| --- | --- | --- |
| 65.6% | O=C1c2ccc(Oc3cccc(Oc4ccc5c(c4)C(=O)N(c4ccc(O)cc4)C5=O)c3)cc2C(=O)N1c1ccc(O)cc1 | IC50 (NCI-H1975): 180 µM; IC50 (PC-9): 216 µM |
| 30.5% | COc1ccc(NC(=O)CCn2ccc(=O)[nH]c2=O)c(O)c1 |  |
| 32.5% | COc1ccc(-c2nc(C[S+]([O-])CC(=O)NCc3ccco3)c(C)o2)cc1 (stereo not given) |  |
| 24.1% | COc1ccc(NC(=O)Cn2cc(C(=O)c3ccc(C)cc3)c(=O)c3cc(OC)c(OC)cc32)cc1OC |  |
| 22.4% | COc1ccc(NC(=O)CCn2ccc(=O)[nH]c2=O)cc1 |  |
|  | Nc1ncnc2c1ncn2[C@@H]1O[C@H](C[C@@H](N)CC[C@H](N)C(=O)O)[C@@H](O)[C@H]1O [SINEFUNGIN] | IC50 (METTL3/METTL14): 2.36 µM |
| 36.7% | CCn1c(N2CCCC(C(=O)Nc3ccc4[nH]c(=O)[nH]c4c3)C2)cc(=O)n(C)c1=O (stereo not given) |  |
| 3.39% | CC(=O)c1ccc(NC(=O)CSc2ncc(CO)n2Cc2ccc(F)cc2)cc1 |  |
| 6.31% | O=C(CCCn1c(SCC(=O)Nc2ccc(F)cc2)nc2c(sc3ccccc32)c1=O)NCCO |  |
| 36.3% | O=C(CCSc1nc(-c2ccco2)cc(C(F)(F)F)n1)NCc1ccco1 |  |
| 25.1% | COc1ccc(C(=O)Nc2cccc(OCc3cc(=O)n4ccc(C)cc4c3)c2)cc1OC |  |
| 35.3% | O=C(CNC(=O)c1ccco1)N/N=C/c1cc(Br)cc(Br)c1OC(=O)c1cccc(F)c1 |  |
| 46.2% | CCOC(=O)CC(=O)CSc1nc2c(sc(=S)n2-c2ccc(C(=O)OCC)cc2)c2nc3ccccc3n12 | IC50 (NCI-H1975): 197 µM; IC50 (PC-9): 213 µM |
| 38.9% | CC(=O)Nc1ccc(C)cc1NC(=O)CCC1COc2ccccc2O1 (stereo not given) |  |
| 31.1% | CNC(=O)Cn1c(CO)cnc1SCC(=O)Nc1ccc(C(C)=O)cc1 |  |
| 32.1% | CCn1c(SCC(=O)Nc2ccc(C)c(F)c2)nc2c3cc(OC)ccc3n(C)c2c1=O |  |

Source: ChEMBL document CHEMBL5608251, “Virtual Screening and Molecular Docking: Discovering Novel METTL3 Inhibitors” (ACS Med Chem Lett, 2024)
